{"source": "paper PMC2694132", "about": "(Cancer research, 2009)", "key": {"UGT2B17": {"target": "T1, UGT2B17 (Homo sapiens, UniProt O75795)", "T1 sequence (O75795 24-530)": "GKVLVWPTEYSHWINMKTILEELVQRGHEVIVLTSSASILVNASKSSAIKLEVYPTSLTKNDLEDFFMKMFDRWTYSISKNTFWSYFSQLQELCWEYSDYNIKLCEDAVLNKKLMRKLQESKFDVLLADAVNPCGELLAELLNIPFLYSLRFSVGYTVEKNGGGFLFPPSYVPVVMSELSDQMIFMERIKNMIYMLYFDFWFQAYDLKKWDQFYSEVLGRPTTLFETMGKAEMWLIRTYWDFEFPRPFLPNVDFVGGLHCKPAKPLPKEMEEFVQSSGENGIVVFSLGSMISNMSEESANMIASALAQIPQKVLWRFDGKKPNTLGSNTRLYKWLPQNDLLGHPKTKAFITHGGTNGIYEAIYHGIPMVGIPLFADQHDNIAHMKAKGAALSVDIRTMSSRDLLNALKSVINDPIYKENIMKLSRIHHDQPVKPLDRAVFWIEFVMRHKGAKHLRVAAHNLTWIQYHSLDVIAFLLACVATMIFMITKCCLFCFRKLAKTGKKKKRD", "test": "SAHA glucuronidation, UGT2B17-overexpressing HEK293 cell homogenate", "assay_type": "in vitro ADME"}, "UGT2B4": {"target": "T2, UGT2B4 (Homo sapiens, UniProt P06133)", "T2 sequence (P06133 24-528)": "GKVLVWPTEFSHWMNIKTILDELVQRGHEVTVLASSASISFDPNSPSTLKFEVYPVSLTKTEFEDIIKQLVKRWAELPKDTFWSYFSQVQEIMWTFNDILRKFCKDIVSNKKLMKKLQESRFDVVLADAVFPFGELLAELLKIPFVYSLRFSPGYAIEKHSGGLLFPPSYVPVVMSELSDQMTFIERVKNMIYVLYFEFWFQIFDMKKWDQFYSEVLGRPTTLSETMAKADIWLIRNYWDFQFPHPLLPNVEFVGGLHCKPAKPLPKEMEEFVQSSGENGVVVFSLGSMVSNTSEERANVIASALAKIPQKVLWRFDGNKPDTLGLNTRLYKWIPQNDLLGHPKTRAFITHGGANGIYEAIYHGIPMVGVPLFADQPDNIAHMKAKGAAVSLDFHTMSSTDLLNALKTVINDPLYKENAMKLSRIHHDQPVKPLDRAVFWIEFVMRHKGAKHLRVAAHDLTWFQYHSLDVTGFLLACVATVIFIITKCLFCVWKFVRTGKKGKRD", "test": "SAHA glucuronidation screen, UGT2B4-overexpressing cell homogenate", "assay_type": "in vitro ADME", "conditions": "400 μg UGT-overexpressing cell homogenate, 1-h incubation"}, "UGT1A9": {"target": "T3, UGT1A9 (Homo sapiens, UniProt O60656)", "T3 sequence (O60656 26-530)": "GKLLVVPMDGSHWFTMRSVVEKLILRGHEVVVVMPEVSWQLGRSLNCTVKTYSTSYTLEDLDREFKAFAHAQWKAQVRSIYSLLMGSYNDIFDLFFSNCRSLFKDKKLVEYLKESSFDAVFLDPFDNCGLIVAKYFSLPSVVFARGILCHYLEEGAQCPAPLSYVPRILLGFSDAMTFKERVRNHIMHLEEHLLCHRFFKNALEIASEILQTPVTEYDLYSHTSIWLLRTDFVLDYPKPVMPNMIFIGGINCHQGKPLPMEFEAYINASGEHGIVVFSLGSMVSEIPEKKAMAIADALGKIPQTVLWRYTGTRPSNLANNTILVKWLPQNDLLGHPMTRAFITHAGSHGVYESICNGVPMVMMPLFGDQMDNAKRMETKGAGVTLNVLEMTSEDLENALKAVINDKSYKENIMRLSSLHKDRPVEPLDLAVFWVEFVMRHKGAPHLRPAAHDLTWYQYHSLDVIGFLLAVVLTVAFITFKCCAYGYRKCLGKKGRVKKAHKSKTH", "test": "SAHA glucuronidation, UGT1A9-overexpressing HEK293 cell homogenate", "assay_type": "in vitro ADME"}, "[1]": {"conditions": "patients treated with SAHA; cited from earlier work"}, "[2]": {"target": "T4, UGT1A7*4 (UGT1A7p.Trp208Arg) (Homo sapiens, UniProt Q9HAW7, W208R)", "T4 sequence (Q9HAW7 26-530 W208R)": "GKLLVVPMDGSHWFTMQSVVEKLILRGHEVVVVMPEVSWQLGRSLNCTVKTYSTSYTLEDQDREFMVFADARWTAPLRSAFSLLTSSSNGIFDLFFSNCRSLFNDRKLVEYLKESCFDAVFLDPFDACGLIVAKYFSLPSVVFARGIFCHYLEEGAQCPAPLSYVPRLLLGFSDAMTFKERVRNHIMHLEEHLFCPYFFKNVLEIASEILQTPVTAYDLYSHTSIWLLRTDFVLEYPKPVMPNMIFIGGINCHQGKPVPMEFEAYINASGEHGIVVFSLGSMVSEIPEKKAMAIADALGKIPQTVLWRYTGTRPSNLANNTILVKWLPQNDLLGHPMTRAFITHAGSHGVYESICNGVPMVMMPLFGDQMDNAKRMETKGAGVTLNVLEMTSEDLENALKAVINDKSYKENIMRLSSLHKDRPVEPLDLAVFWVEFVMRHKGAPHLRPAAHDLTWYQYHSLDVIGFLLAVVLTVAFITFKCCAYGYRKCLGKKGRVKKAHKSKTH", "test": "SAHA glucuronidation, UGT1A7*4 variant cell homogenate", "assay_type": "in vitro ADME"}, "UGT2B15": {"target": "T5, UGT2B15 (Homo sapiens, UniProt P54855)", "T5 sequence (P54855 24-530)": "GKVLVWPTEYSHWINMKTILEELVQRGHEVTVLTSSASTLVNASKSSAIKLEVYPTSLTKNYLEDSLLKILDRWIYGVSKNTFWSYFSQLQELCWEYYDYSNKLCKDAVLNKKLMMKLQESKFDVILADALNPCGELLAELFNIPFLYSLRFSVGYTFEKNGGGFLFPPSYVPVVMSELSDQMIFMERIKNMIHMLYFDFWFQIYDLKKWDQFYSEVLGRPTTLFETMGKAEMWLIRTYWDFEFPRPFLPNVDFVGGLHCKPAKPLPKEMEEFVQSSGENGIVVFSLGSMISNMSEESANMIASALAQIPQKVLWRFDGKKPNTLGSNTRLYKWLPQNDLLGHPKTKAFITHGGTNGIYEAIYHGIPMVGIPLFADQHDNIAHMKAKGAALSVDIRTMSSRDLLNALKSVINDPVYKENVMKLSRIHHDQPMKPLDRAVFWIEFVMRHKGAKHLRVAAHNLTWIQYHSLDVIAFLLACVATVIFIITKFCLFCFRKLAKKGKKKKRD", "test": "SAHA glucuronidation screen, UGT2B15-overexpressing cell homogenate", "assay_type": "in vitro ADME", "conditions": "400 μg UGT-overexpressing cell homogenate, 1-h incubation"}, "[3]": {"conditions": "400 μg UGT-overexpressing cell homogenate, 1-h incubation"}}, "data": [{"smiles": "O=C(CCCCCCC(=O)Nc1ccccc1)NO", "note": "[SAHA, Suberoylanilide hydroxamic acid]", "values": [{"measurement": "glucuronidation against SAHA (screen)", "setting": "UGT2B17; [3]", "value": "high levels of glucuronidation"}, {"measurement": "apparent KM of UGT2B17 lower than that of UGT1A3", "setting": "UGT2B17; against SAHA", "value": 11, "unit": "fold"}, {"measurement": "apparent KM of UGT2B17 lower than that of UGT1A9", "setting": "UGT2B17; against SAHA", "value": 5, "unit": "fold"}, {"measurement": "higher level of glucuronidation activity (Vmax/KM) of UGT2B17 compared with UGT1A3", "setting": "UGT2B17; against SAHA", "value": 9.4, "unit": "fold"}, {"measurement": "higher level of glucuronidation activity (Vmax/KM) of UGT2B17 compared with UGT1A9", "setting": "UGT2B17; against SAHA", "value": 2.3, "unit": "fold"}, {"measurement": "Km at 1 h", "setting": "UGT2B17; human, UGT2B17-overexpressing HEK293 cell homogenate, pH 7.5", "value": "300 ± 100", "unit": "µM"}, {"measurement": "glucuronidation activity against SAHA (screen)", "setting": "UGT2B4", "value": "No detectable glucuronidation activity"}, {"measurement": "glucuronidation against SAHA (screen)", "setting": "UGT1A9; [3]", "value": "high levels of glucuronidation"}, {"measurement": "Km at 1 h", "setting": "UGT1A9; human, UGT1A9-overexpressing HEK293 cell homogenate, pH 7.5", "value": "1600 ± 500", "unit": "µM"}, {"measurement": "apparent terminal half-life", "setting": "[1]", "value": "~ 1.8 hours"}, {"measurement": "difference in glucuronidation activity against SAHA versus wild-type UGT1A7", "setting": "[2]; UGT1A7 variants", "value": "No significant difference"}, {"measurement": "Km at 1 h", "setting": "[2]; human, pH 7.5", "value": "2200 ± 500", "unit": "µM"}, {"measurement": "glucuronidation activity against SAHA (screen)", "setting": "UGT2B15", "value": "No detectable glucuronidation activity"}]}]}
